Reference: patent US7074789B2, “Kinase inhibitors” (Amgen Inc., priority 1999, dated 2006)

Columns and labels:
Type in all cases: biochemical
IGFR-1 = biological target: T1, IGFR-1 (Homo sapiens, UniProt P08069); assay: Kinase inhibition assay (33P transfer), IGFR-1; conditions: Table 2, kinase inhibition class
T1 construct: Kinases are expressed as either kinase domains or full length constructs; made in house

AKT = biological target: T2, AKT (Homo sapiens, UniProt Q9Y243); assay: Kinase inhibition assay (33P transfer), AKT; conditions: Table 2, kinase inhibition class; read-out: AKT3-1
T2 construct: Kinases are expressed as either kinase domains or full length constructs; made in house
How it was run: (§1)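 Enzyme activity is taken as the amount of 33PO4 moved from ATP onto poly(Glu, Tyr) 4:1 or poly(Arg, Ser) 3:1 fixed to the plate surface. Unbound label is removed with 0.5% phosphoric acid before scintillation counting.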

Lck = biological target: T3, Lck (Homo sapiens, UniProt P06239); assay: Kinase inhibition assay (33P transfer), Lck; conditions: Table 3; read-out: Lck-1
T3 construct: Kinases are expressed as either kinase domains or full length constructs; made in house
How it was run: as §1

c-Met = biological target: T4, c-Met (Homo sapiens, UniProt P08581); assay: Kinase inhibition assay (33P transfer), c-Met; conditions: Table 2, kinase inhibition class; read-out: Met-1
T4 construct: Kinases are expressed as either kinase domains or full length constructs; made in house
How it was run: (§2)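 Read-out: scintillation counts of 33P moved from ATP onto synthetic peptide polymer coated on the well surface, after washing with 0.5% phosphoric acid. Enzymes were tagged (GST or polyHistidine) and came from bacterial or insect-cell expression. IC50 marks 50% loss of incorporated label.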

EGFR = biological target: T5, EGFR (Homo sapiens, UniProt P00533); assay: Kinase inhibition assay (33P transfer), EGFR; conditions: Table 2, kinase inhibition class; read-out: EGFR-1
T5 construct: Kinases are expressed as either kinase domains or full length constructs; made in house
How it was run: as §2

Kdr = biological target: T6, Kdr (Homo sapiens, UniProt P35968); assay: Kinase inhibition assay (33P transfer), Kdr; conditions: Table 3; read-out: KDR-1
T6 construct: Kinases are expressed as either kinase domains or full length constructs; made in house
How it was run: as §1

Itk = biological target: T7, Itk (Homo sapiens, UniProt Q08881); assay: Kinase inhibition assay (33P transfer), Itk; conditions: Table 3; read-out: Itk-1
T7 construct: Kinases are expressed as either kinase domains or full length constructs; made in house
T7 sequence (Q08881 1-620): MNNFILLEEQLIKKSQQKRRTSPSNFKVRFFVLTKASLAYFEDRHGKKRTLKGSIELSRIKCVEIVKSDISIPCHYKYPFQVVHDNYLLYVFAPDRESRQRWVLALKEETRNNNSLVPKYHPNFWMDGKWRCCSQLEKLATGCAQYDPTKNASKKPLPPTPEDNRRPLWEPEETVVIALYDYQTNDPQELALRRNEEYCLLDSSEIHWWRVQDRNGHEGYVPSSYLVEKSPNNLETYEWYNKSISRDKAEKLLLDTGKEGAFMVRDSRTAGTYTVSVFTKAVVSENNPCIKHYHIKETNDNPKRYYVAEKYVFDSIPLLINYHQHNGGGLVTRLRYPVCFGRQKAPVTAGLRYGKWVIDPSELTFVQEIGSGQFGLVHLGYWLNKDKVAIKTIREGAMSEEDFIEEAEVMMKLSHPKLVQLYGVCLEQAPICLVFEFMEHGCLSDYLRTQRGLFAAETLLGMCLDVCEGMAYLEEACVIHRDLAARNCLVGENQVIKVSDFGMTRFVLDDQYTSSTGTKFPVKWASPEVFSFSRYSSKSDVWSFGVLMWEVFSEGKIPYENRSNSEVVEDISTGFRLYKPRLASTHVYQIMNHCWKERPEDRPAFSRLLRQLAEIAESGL
How it was run: as §2

Zap-70 = biological target: T8, Zap-70 (Homo sapiens, UniProt P43403); assay: Kinase inhibition assay (33P transfer), Zap-70; conditions: Table 3; read-out: Zap-1
T8 construct: Kinases are expressed as either kinase domains or full length constructs; made in house
T8 sequence (P43403 1-619): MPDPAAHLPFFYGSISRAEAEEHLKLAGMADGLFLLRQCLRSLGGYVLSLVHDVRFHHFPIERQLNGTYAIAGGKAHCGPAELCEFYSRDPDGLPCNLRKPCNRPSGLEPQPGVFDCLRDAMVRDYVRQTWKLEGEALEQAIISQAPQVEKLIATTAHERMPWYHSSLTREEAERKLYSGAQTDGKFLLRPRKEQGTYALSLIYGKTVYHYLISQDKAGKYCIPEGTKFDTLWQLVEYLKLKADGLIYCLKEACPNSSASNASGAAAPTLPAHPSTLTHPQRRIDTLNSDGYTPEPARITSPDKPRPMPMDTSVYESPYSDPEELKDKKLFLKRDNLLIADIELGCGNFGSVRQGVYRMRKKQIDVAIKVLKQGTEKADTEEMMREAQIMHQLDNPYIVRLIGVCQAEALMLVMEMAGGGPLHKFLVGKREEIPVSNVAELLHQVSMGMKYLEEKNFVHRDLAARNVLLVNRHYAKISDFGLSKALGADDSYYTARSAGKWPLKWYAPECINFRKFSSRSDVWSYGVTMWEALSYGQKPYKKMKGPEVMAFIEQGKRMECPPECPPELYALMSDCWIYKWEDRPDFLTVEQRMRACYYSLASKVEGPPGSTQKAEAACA
How it was run: as §1

EPHB4 = biological target: T9, EPHB4 (Homo sapiens, UniProt P54760); assay: Kinase inhibition assay (33P transfer), EPHB4; conditions: read-out: EPHB4-1
T9 construct: Kinases are expressed as either kinase domains or full length constructs; made in house
T9 sequence (P54760 16-987): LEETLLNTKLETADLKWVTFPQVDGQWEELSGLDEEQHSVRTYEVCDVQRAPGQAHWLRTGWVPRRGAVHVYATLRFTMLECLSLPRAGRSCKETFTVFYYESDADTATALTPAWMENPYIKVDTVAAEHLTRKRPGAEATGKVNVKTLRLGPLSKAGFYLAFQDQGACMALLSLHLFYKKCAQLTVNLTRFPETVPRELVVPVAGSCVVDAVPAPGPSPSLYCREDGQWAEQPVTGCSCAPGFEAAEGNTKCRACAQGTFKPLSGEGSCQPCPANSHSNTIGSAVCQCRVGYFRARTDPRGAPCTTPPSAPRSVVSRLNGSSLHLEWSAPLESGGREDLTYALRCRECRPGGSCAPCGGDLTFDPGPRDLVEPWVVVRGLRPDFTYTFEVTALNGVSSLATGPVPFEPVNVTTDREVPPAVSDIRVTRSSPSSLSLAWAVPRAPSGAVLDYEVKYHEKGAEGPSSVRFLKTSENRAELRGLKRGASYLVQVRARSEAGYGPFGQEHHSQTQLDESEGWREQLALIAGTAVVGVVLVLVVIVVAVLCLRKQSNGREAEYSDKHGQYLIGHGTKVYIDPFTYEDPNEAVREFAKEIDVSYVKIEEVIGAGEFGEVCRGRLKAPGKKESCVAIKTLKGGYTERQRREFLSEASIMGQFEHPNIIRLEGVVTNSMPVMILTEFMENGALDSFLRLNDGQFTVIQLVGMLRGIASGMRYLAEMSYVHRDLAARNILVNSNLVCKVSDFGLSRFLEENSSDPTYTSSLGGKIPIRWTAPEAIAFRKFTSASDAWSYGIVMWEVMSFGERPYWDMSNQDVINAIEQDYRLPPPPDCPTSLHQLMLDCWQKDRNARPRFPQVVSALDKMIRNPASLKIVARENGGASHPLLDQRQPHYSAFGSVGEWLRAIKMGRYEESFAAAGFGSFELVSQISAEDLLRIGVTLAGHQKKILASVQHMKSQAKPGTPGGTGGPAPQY

Tek = biological target: T10, Tek (Homo sapiens, UniProt Q02763); assay: Kinase inhibition assay (33P transfer), Tek; conditions: read-out: Tek-1
T10 construct: Kinases are expressed as either kinase domains or full length constructs; made in house
How it was run: as §2

FGFR1 = biological target: T11, FGFR1 (Homo sapiens, UniProt P11362); assay: Kinase inhibition assay (33P transfer), FGFR1; conditions: read-out: FGFR1-1
T11 construct: Kinases are expressed as either kinase domains or full length constructs; made in house

Flt-1 = biological target: T12, Flt-1 (Homo sapiens, UniProt P17948); assay: Kinase inhibition assay (33P transfer), Flt-1
T12 construct: Kinases are expressed as either kinase domains or full length constructs; made in house
How it was run: as §2

Hck-1 = biological target: T13, Hck-1 (Homo sapiens, UniProt P08631); assay: Kinase inhibition assay (33P transfer), Hck; conditions: Table 6, Hck-1 kinase inhibition class
T13 construct: Kinases are expressed as either kinase domains or full length constructs; made in house

Lyn = biological target: T14, Lyn (Homo sapiens, UniProt P07948); assay: Kinase inhibition assay (33P transfer), Lyn; conditions: Table 6, Lyn-1 kinase inhibition class
T14 construct: Kinases are expressed as either kinase domains or full length constructs; made in house
How it was run: as §2

ErbB2 = biological target: T15, ErbB2 (Homo sapiens, UniProt P04626); assay: Kinase inhibition assay (33P transfer), ErbB2; conditions: read-out: ErbB2-2
T15 construct: Kinases are expressed as either kinase domains or full length constructs; made in house
How it was run: as §2

Fyn = biological target: T16, Fyn (Homo sapiens, UniProt P06241); assay: Kinase inhibition assay (33P transfer), Fyn; conditions: read-out: Fyn-1
T16 construct: Kinases are expressed as either kinase domains or full length constructs; made in house
How it was run: as §2

PDGFRB = biological target: T17, PDGFRB (Homo sapiens, UniProt P09619); assay: Kinase inhibition assay (33P transfer), PDGFRB; conditions: read-out: PDGFRB-1
T17 construct: Kinases are expressed as either kinase domains or full length constructs; made in house

Src = biological target: T18, Src (Homo sapiens, UniProt P12931); assay: Kinase inhibition assay (33P transfer), Src; conditions: Table 6, Src-1 kinase inhibition class
T18 construct: Kinases are expressed as either kinase domains or full length constructs; made in house
How it was run: as §2

ErbB4 = biological target: T19, ErbB4 (Homo sapiens, UniProt Q15303); assay: Kinase inhibition assay (33P transfer), ErbB4; conditions: read-out: ErbB4-1
T19 construct: Kinases are expressed as either kinase domains or full length constructs; made in house

T6 sequence (P35968 20-1356, species assumed): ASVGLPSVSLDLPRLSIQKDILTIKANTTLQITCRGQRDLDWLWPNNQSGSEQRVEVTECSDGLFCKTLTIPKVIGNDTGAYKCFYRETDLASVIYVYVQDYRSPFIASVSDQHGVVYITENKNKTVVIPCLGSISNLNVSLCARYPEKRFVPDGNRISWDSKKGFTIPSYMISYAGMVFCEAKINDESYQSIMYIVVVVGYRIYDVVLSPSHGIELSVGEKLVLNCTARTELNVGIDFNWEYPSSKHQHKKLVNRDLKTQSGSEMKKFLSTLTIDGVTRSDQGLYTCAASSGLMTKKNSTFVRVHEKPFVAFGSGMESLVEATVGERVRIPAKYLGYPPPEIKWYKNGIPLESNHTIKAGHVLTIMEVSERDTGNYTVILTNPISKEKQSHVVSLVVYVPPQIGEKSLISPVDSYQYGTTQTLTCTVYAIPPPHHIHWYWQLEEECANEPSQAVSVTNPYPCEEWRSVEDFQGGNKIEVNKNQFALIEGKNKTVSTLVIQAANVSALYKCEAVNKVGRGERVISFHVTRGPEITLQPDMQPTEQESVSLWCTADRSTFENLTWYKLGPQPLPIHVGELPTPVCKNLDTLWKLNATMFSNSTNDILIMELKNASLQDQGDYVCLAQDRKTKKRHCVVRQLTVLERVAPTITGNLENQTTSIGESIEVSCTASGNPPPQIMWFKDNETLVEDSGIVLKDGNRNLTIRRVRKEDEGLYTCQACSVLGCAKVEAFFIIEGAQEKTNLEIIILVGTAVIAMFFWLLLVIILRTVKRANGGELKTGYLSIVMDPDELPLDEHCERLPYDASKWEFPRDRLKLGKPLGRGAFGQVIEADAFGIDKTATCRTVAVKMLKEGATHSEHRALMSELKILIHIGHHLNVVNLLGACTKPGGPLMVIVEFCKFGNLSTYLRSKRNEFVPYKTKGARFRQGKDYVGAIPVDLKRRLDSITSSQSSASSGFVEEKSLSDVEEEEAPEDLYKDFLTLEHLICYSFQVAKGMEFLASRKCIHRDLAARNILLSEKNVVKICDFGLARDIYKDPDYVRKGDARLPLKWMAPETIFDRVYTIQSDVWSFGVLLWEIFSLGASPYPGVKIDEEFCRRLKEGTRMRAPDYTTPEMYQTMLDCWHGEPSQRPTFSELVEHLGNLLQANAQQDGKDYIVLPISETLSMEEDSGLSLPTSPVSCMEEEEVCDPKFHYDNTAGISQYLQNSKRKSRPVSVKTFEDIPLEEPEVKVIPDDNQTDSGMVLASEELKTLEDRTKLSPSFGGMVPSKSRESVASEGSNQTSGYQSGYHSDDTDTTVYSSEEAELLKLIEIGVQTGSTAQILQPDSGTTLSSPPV
T5 sequence (P00533 25-1210, species assumed): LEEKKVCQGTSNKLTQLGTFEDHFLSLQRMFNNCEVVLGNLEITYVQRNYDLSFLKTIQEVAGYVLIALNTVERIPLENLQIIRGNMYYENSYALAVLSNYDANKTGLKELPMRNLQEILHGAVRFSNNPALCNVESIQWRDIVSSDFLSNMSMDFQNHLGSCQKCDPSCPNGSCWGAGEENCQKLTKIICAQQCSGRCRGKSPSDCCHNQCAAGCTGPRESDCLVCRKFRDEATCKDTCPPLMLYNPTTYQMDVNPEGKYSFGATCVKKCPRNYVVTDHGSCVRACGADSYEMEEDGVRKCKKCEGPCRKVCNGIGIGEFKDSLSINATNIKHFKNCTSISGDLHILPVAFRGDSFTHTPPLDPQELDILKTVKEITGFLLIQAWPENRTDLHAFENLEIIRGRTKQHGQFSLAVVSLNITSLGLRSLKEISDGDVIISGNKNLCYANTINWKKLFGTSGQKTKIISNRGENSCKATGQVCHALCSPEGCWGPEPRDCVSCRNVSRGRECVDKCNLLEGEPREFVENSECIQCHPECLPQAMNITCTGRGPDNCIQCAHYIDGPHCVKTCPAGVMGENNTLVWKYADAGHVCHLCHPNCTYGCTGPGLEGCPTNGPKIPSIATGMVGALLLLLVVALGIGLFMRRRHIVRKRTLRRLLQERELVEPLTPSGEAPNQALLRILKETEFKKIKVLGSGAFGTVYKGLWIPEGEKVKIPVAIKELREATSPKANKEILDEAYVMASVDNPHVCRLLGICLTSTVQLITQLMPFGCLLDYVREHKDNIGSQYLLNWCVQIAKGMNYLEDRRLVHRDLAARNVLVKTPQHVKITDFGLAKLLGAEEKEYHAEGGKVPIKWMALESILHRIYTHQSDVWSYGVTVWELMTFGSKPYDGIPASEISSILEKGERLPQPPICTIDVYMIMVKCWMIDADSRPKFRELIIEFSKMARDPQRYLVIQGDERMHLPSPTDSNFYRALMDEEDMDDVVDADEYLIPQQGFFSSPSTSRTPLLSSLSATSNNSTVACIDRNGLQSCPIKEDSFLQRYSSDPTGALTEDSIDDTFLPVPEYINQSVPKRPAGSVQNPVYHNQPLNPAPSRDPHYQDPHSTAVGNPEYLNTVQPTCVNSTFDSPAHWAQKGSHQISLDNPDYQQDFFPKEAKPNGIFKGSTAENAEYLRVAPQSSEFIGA
T2 sequence (Q9Y243 whole entry, the tested form may be a part): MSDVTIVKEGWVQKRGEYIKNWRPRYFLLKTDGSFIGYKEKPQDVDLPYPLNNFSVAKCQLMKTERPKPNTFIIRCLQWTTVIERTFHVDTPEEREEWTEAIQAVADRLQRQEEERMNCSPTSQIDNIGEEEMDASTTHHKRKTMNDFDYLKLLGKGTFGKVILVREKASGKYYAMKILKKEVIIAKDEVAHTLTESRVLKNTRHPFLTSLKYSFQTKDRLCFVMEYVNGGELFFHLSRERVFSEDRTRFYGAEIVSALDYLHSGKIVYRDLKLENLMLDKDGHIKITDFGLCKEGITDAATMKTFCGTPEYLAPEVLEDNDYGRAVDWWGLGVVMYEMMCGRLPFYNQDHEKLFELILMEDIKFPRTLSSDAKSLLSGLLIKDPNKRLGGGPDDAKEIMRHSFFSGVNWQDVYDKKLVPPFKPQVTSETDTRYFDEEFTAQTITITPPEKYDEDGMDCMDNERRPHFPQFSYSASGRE
T1 sequence (P08069 31-1367): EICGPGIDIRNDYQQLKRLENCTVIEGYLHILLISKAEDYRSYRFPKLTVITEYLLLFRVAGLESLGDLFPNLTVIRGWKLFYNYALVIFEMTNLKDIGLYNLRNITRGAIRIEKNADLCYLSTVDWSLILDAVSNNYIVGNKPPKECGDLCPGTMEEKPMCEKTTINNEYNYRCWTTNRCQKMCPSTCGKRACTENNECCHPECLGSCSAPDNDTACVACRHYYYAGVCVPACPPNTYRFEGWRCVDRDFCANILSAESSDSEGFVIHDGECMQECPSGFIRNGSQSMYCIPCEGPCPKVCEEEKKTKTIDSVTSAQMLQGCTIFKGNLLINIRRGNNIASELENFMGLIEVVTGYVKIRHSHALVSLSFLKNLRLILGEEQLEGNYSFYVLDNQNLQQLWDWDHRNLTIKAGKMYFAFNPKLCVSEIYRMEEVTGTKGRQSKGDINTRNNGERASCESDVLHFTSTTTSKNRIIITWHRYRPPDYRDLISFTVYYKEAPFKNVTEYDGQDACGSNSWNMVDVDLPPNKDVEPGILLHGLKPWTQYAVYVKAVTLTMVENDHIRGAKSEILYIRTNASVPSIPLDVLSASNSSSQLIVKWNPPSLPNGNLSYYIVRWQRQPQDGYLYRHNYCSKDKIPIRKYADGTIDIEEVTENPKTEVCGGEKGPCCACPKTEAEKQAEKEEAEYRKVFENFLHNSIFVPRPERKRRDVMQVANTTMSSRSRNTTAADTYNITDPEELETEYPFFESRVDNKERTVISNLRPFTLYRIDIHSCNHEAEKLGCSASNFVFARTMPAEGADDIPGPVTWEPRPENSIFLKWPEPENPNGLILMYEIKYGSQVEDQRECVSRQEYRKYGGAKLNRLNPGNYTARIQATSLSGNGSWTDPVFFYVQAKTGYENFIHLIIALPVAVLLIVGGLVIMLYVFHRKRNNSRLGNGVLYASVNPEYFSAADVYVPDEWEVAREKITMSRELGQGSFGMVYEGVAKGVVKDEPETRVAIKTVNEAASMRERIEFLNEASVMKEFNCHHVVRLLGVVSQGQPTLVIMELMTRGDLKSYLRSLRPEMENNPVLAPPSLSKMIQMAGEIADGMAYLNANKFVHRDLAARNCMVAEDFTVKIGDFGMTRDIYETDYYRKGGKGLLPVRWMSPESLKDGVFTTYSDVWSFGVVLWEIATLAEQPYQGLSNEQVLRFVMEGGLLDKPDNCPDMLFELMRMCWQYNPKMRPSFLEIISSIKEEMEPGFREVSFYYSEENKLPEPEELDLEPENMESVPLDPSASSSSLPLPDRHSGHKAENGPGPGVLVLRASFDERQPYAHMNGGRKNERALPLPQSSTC
T3 sequence (P06239 whole entry, species assumed, the tested form may be a part): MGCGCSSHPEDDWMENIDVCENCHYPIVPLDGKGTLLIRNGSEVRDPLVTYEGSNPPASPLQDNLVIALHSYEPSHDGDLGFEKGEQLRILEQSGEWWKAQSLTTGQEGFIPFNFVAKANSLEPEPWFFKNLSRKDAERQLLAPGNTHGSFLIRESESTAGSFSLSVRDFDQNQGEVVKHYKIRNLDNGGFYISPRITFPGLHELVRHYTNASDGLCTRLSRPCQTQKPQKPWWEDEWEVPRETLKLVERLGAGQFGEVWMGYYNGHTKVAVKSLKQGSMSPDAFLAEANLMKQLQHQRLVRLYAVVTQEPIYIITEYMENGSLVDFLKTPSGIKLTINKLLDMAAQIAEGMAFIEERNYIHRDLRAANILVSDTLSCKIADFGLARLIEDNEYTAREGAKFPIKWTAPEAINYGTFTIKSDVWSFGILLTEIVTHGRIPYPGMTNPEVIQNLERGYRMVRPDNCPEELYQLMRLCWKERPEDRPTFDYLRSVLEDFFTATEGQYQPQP

SMILES	IC50 (IGFR-1) [µM]	IC50 (AKT) [µM]	IC50 (Lck) [µM]	IC50 (c-Met) [µM]	IC50 (EGFR) [µM]	IC50 (Kdr) [µM]	IC50 (Itk) [µM]	IC50 (Zap-70) [µM]	IC50 (EPHB4) [µM]	IC50 (Tek) [µM]	IC50 (FGFR1) [µM]	IC50 (Flt-1) [µM]	IC50 (Hck-1) [µM]	IC50 (Lyn) [µM]	IC50 (ErbB2) [µM]	IC50 (Fyn) [µM]	IC50 (PDGFRB) [µM]	IC50 (Src) [µM]	IC50 (ErbB4) [µM]
COC(=O)c1cc(Nc2ncnc(Nc3cc(-c4ccco4)n[nH]3)n2)cc(C(=O)OC)c1 [Compound 343]	0.919 to 5.51	> 10.3	> 10.3	8.04 to 10.3	> 10.3	0.919 to 5.51	> 10.3	> 10.3	0.919 to 5.51										
COc1cc(Nc2ncnc(NC3CC3c3ccccc3)n2)cc(OC)c1OC (stereo not drawn) [Compound 428]	1.02 to 6.1	> 11.4	< 1.02	> 11.4	< 1.02	6.1 to 8.9	> 11.4	> 11.4		> 11.4	6.1 to 8.9	> 11.4	> 11.4	< 1.02	1.02 to 6.1	1.02 to 6.1	1.02 to 6.1	1.02 to 6.1	1.02 to 6.1
